From patent US11684306B2, “Stable water isotope labeling and magnetic resonance imaging for visualization of the presence of and prediction of the likelihood of occurence of rapidly dividing cells” (THE UNITED STATES OF AMERICA, AS REPRESENTED BY THE …, priority 2016, dated 2023)

Columns and labels:
Assay type in all cases: in vivo
[1] = Total body water (TBW) deuterium enrichment in people
[2] = Total body water (TBW) deuterium enrichment in mice
Text: In one aspect, deuterium labeling was achieved by intraperitoneal injection of 100% ^2H2O with NaCl added to make this fluid isotonic, then maintaining the achieved 5% ^2H enrichment in total body water (TBW) by providing 8% ^2H2O in drinking water to mice. Deuterium within total body water diffuses rapidly into all tissues and is excreted unchanged by the kidneys. Therefore, according to various embodiments, deuterium labeled fluids may be provided to an animal or human subject via injected and/or ingested fluid yielding a deuterium concentration of about 5% TBW. […] Higher TBW enrichments (up to 20% TBW ^2H) may improve sensitivity of dMRI detection. Such enrichments should be safe, as deuterium is non-radioactive, tasteless, colorless and without known side effects at these doses.
FIG. 9 is an illustration for one embodiment of a scheme 900 for labeling and imaging rapidly dividing cells. As shown, the method begins with total body irradiation (TBI) conditioning performed one day prior to the infusion of a transplant graft (day −1), indicated as 902. In the embodiment shown, the bone marrow transplant (BMT) graft, containing bone marrow stem cells and T cells from the donor spleen, is infused on day 0, indicated as 904. […]
For measuring ^2H2O water levels in TBW (e.g. urine), we developed a simple and quantitative headspace-GC-NCI-MS method (publication pending). […]

[3] = Safety of deuterium enrichment in total body water

time for TBW deuterium enrichment to return to baseline (0.015%) after supplementation is discontinued [1]: ~14 days | time for TBW deuterium enrichment to return to baseline (0.015%) after supplementation is discontinued [2]: approximately 7 days
Compound: [2H]O[2H] [deuterated water]
toxicity ([3]; doses up to 20% in total body water): non-toxic | safety of higher TBW enrichment ([3]; enrichments up to and including approximately 20% TBW): safely achieved | effect on rates of DNA synthesis ([3]; in vivo): does not affect rates of DNA synthesis
